ChEMBL document CHEMBL4002566, “S-substituted 3,5-dinitrophenyl 1,3,4-oxadiazole-2-thiols and tetrazole-5-thiols as highly efficient antitubercular agents” (Eur J Med Chem, 2017)
≈ marks a conversion by molar mass, not a printed value.

Legend:
[1] = test system: Mycobacterium tuberculosis; assay: Antimycobacterial activity against Mycobacterium tuberculosis H37Rv expressing GFP after 7 days; assay type: functional; conditions: 168 h
[2] = test system: Mycobacterium tuberculosis; assay: Antimycobacterial activity against Mycobacterium tuberculosis H37Rv by broth microdilution method; assay type: functional
[3] = test system: Staphylococcus aureus; assay: Antibacterial activity against methicillin-resistant Staphylococcus aureus HK5996/08 after 48 hrs by broth microdilution method; assay type: functional; conditions: HK5996/08, 48 h
[4] = Cytotoxicity against human HepG2 cells assessed as cell viability at 30 uM after 48 hrs by MTS assay relative to control; assay type: cell-based; conditions: read-out: Activity
[5] = Cytotoxicity against human HuH7 cells assessed as cell viability at 30 uM after 48 hrs by MTS assay relative to control; assay type: cell-based, Huh-7; conditions: read-out: Activity
[6] = test system: Enterococcus sp.; assay: Antibacterial activity against Enterococcus sp. HK14365/08 after 48 hrs by broth microdilution method; assay type: functional; conditions: HK14365/08, 48 h
[7] = test system: MDCK; assay: Cytotoxicity against MDCK cells assessed as cell viability after 48 hrs by MTS assay; assay type: cell-based; conditions: Canis lupus familiaris
[8] = test system: Staphylococcus aureus; assay: Antibacterial activity against Staphylococcus aureus ATCC 6538 after 48 hrs by broth microdilution method; assay type: functional; conditions: ATCC 6538, 48 h
[9] = test system: Klebsiella pneumoniae; assay: Antibacterial activity against Klebsiella pneumoniae HK11750/08 after 48 hrs by broth microdilution method; assay type: functional; conditions: HK11750/08, 48 h
[10] = test system: Klebsiella pneumoniae; assay: Antibacterial activity against Klebsiella pneumoniae HK11750/08 after 24 hrs by broth microdilution method; assay type: functional; conditions: HK11750/08, 24 h
[11] = test system: Aspergillus fumigatus; assay: Antifungal activity against Aspergillus fumigatus 231 after 24 hrs by broth microdilution method; assay type: functional; conditions: Aspergillus fumigatus, 231, 24 h
[12] = test system: Mycobacterium avium; assay: Antimycobacterial activity against Mycobacterium avium CNCTC My 330/88 after 14 days by micromethod; assay type: functional; conditions: CNCTC My 330/88, 336 h
[13] = Selectivity index, ratio of IC50 for human HepG2 cells to MIC for Mycobacterium tuberculosis; assay type: toxicity; conditions: read-out: Selectivity Index
[14] = test system: HepG2; assay: Cytotoxicity against human HepG2 cells assessed as cell viability after 48 hrs by MTS assay; assay type: cell-based; conditions: HepG2, 48 h
[15] = test system: Candida tropicalis; assay: Antifungal activity against Candida tropicalis 156 after 48 hrs by broth microdilution method; assay type: functional; conditions: Candida tropicalis, 156, 48 h
[16] = test system: Staphylococcus epidermidis; assay: Antibacterial activity against Staphylococcus epidermidis HK6996/08 after 48 hrs by broth microdilution method; assay type: functional; conditions: HK6996/08, 48 h
[17] = test system: Candida tropicalis; assay: Antifungal activity against Candida tropicalis 156 after 24 hrs by broth microdilution method; assay type: functional; conditions: Candida tropicalis, 156, 24 h
[18] = Cytotoxicity against MDCK cells assessed as cell viability at 30 uM after 48 hrs by MTS assay relative to control; assay type: cell-based, Canis lupus familiaris; conditions: dog, read-out: Activity
[19] = Cytotoxicity against human A431 cells assessed as cell viability at 30 uM after 48 hrs by MTS assay relative to control; assay type: cell-based, A-431; conditions: read-out: Activity
[20] = test system: Klebsiella pneumoniae; assay: Antibacterial activity against extended spectrum beta-lactamase producing Klebsiella pneumoniae HK14368/08 after 48 hrs by broth microdilution method; assay type: functional; conditions: HK14368/08, 48 h
[21] = test system: Trichophyton mentagrophytes; assay: Antifungal activity against Trichophyton mentagrophytes 445 after 72 hrs by broth microdilution method; assay type: functional; conditions: Trichophyton mentagrophytes, 445, 72 h
[22] = test system: Lichtheimia corymbifera; assay: Antifungal activity against Absidia corymbifera 272 after 48 hrs by broth microdilution method; assay type: functional; conditions: Lichtheimia corymbifera, 272, 48 h
[23] = test system: Huh-7; assay: Cytotoxicity against human HuH7 cells assessed as cell viability after 48 hrs by MTS assay; assay type: cell-based; conditions: Huh-7, 48 h
[24] = test system: Mycobacterium avium; assay: Antimycobacterial activity against Mycobacterium avium CNCTC My 330/88 after 21 days by micromethod; assay type: functional; conditions: CNCTC My 330/88, 504 h
[25] = test system: Pichia kudriavzevii; assay: Antifungal activity against Candida krusei E28 after 48 hrs by broth microdilution method; assay type: functional; conditions: E28, 48 h
[26] = test system: Pseudomonas aeruginosa; assay: Antibacterial activity against Pseudomonas aeruginosa ATCC 9027 after 24 hrs by broth microdilution method; assay type: functional; conditions: ATCC 9027, 24 h
[27] = test system: Staphylococcus aureus; assay: Antibacterial activity against Staphylococcus aureus ATCC 6538 after 24 hrs by broth microdilution method; assay type: functional; conditions: ATCC 6538, 24 h
[28] = test system: Trichosporon asahii; assay: Antifungal activity against Trichosporon asahii 1188 after 24 hrs by broth microdilution method; assay type: functional; conditions: Trichosporon asahii, 1188, 24 h
[29] = test system: Mycobacterium kansasii; assay: Antimycobacterial activity against Mycobacterium kansasii CNCTC My 235/80 after 21 days by micromethod; assay type: functional; conditions: CNCTC My 235/80, 504 h
[30] = test system: Lichtheimia corymbifera; assay: Antifungal activity against Absidia corymbifera 272 after 24 hrs by broth microdilution method; assay type: functional; conditions: Lichtheimia corymbifera, 272, 24 h
[31] = test system: Nakaseomyces glabratus; assay: Antifungal activity against Candida glabrata 20/I after 24 hrs by broth microdilution method; assay type: functional
[32] = test system: Candida albicans; assay: Antifungal activity against Candida albicans ATCC 44859 after 24 hrs by broth microdilution method; assay type: functional; conditions: ATCC 44859, 24 h
[33] = test system: Mycobacterium kansasii; assay: Antimycobacterial activity against Mycobacterium kansasii CNCTC My 235/80 after 14 days by micromethod; assay type: functional; conditions: CNCTC My 235/80, 336 h
[34] = test system: Mycobacterium tuberculosis; assay: Antimycobacterial activity against Mycobacterium tuberculosis CNCTC My 331/88 after 14 days by micromethod; assay type: functional; conditions: CNCTC My 331/88, 336 h
[35] = test system: Mycobacterium kansasii; assay: Antimycobacterial activity against Mycobacterium kansasii 6509/96 clinical isolate after 7 days by micromethod; assay type: functional; conditions: 6509/96, 168 h
[36] = test system: Trichosporon asahii; assay: Antifungal activity against Trichosporon asahii 1188 after 48 hrs by broth microdilution method; assay type: functional; conditions: Trichosporon asahii, 1188, 48 h
[37] = test system: Mycobacterium tuberculosis; assay: Antimycobacterial activity against Mycobacterium tuberculosis CNCTC My 331/88 after 21 days by micromethod; assay type: functional; conditions: CNCTC My 331/88, 504 h
[38] = test system: Pichia kudriavzevii; assay: Antifungal activity against Candida krusei E28 after 24 hrs by broth microdilution method; assay type: functional; conditions: E28, 24 h
[39] = test system: Staphylococcus aureus; assay: Antibacterial activity against methicillin-resistant Staphylococcus aureus HK5996/08 after 24 hrs by broth microdilution method; assay type: functional; conditions: HK5996/08, 24 h
[40] = test system: A-431; assay: Cytotoxicity against human A431 cells assessed as cell viability after 48 hrs by MTS assay; assay type: cell-based; conditions: A-431, 48 h
[41] = test system: Staphylococcus epidermidis; assay: Antibacterial activity against Staphylococcus epidermidis HK6996/08 after 24 hrs by broth microdilution method; assay type: functional; conditions: HK6996/08, 24 h
[42] = test system: Mycobacterium kansasii; assay: Antimycobacterial activity against Mycobacterium kansasii 6509/96 clinical isolate after 14 days by micromethod; assay type: functional; conditions: 6509/96, 336 h
[43] = test system: Mycobacterium kansasii; assay: Antimycobacterial activity against Mycobacterium kansasii CNCTC My 235/80 after 7 days by micromethod; assay type: functional; conditions: CNCTC My 235/80, 168 h
[44] = test system: Nakaseomyces glabratus; assay: Antifungal activity against Candida glabrata 20/I after 48 hrs by broth microdilution method; assay type: functional
[45] = test system: Pseudomonas aeruginosa; assay: Antibacterial activity against Pseudomonas aeruginosa ATCC 9027 after 48 hrs by broth microdilution method; assay type: functional; conditions: ATCC 9027, 48 h
[46] = test system: Candida albicans; assay: Antifungal activity against Candida albicans ATCC 44859 after 48 hrs by broth microdilution method; assay type: functional; conditions: ATCC 44859, 48 h
[47] = test system: Enterococcus sp.; assay: Antibacterial activity against Enterococcus sp. HK14365/08 after 24 hrs by broth microdilution method; assay type: functional; conditions: HK14365/08, 24 h
[48] = test system: Trichophyton mentagrophytes; assay: Antifungal activity against Trichophyton mentagrophytes 445 after 120 hrs by broth microdilution method; assay type: functional; conditions: Trichophyton mentagrophytes, 445, 120 h
[49] = test system: Mycobacterium kansasii; assay: Antimycobacterial activity against Mycobacterium kansasii 6509/96 clinical isolate after 21 days by micromethod; assay type: functional; conditions: 6509/96, 504 h
[50] = test system: Aspergillus fumigatus; assay: Antifungal activity against Aspergillus fumigatus 231 after 48 hrs by broth microdilution method; assay type: functional; conditions: Aspergillus fumigatus, 231, 48 h
[51] = test system: Escherichia coli; assay: Antibacterial activity against Escherichia coli ATCC 8739 after 24 hrs by broth microdilution method; assay type: functional; conditions: ATCC 8739, 24 h
[52] = test system: Escherichia coli; assay: Antibacterial activity against Escherichia coli ATCC 8739 after 48 hrs by broth microdilution method; assay type: functional; conditions: ATCC 8739, 48 h
[53] = test system: Klebsiella pneumoniae; assay: Antibacterial activity against extended spectrum beta-lactamase producing Klebsiella pneumoniae HK14368/08 after 24 hrs by broth microdilution method; assay type: functional; conditions: HK14368/08, 24 h
[54] = test system: Mycobacterium tuberculosis; assay: Antimycobacterial activity against Mycobacterium tuberculosis MDR_CHUV by resazurin reduction microplate assay; assay type: functional

## Cn1nc([N+](=O)[O-])nc1Oc1ccc(C(C)(C)C)cc1
[1]
  MIC: 0.5 µM (≈ 0.138 µg/mL)

## C[C@H]1COC2(CCN(c3nc(=O)c4cc(C(F)(F)F)cc([N+](=O)[O-])c4s3)CC2)O1 [BTZ-043]
[2]
  MIC: 0.001 µM (≈ 0.000431 µg/mL)

## COc1ccc(CSc2nnc(-c3cc([N+](=O)[O-])cc([N+](=O)[O-])c3)o2)cc1
[3]
  MIC: > 500 µM
[4]
  viability at 48 h, 30 µM: 126%
[5]
  viability at 48 h, 30 µM: 118%
[6]
  MIC: > 500 µM
[7]
  IC50: > 30 µM
[8]
  MIC: > 500 µM
[9]
  MIC: > 500 µM
[10]
  MIC: > 500 µM
[11]
  MIC: > 500 µM
[12]
  MIC: 4 µM (≈ 1.55 µg/mL)
[13]
  selectivity ratio: > 1000
[14]
  IC50: > 30 µM
[15]
  MIC: > 500 µM
[16]
  MIC: > 500 µM
[17]
  MIC: > 500 µM
[18]
  viability at 48 h, 30 µM: 119%
[19]
  viability at 48 h, 30 µM: 93%
[20]
  MIC: > 500 µM
[21]
  MIC: > 500 µM
[22]
  MIC: > 500 µM
[23]
  IC50: > 30 µM
[24]
  MIC: 4 µM (≈ 1.55 µg/mL)
[25]
  MIC: > 500 µM
[26]
  MIC: > 500 µM
[27]
  MIC: > 500 µM
[28]
  MIC: > 500 µM
[29]
  MIC: 0.125 µM (≈ 0.0485 µg/mL)
[30]
  MIC: > 500 µM
[31]
  MIC: > 500 µM
[32]
  MIC: > 500 µM
[33]
  MIC: 0.125 µM (≈ 0.0485 µg/mL)
[34]
  MIC: 0.03 µM (≈ 0.0117 µg/mL)
[35]
  MIC: 0.125 µM (≈ 0.0485 µg/mL)
[36]
  MIC: > 500 µM
[37]
  MIC: 0.06 µM (≈ 0.0233 µg/mL)
[38]
  MIC: > 500 µM
[39]
  MIC: > 500 µM
[40]
  IC50: > 30 µM
[41]
  MIC: > 500 µM
[42]
  MIC: 0.25 µM (≈ 0.0971 µg/mL)
[43]
  MIC: 0.125 µM (≈ 0.0485 µg/mL)
[44]
  MIC: > 500 µM
[45]
  MIC: > 500 µM
[46]
  MIC: > 500 µM
[47]
  MIC: > 500 µM
[48]
  MIC: > 500 µM
[49]
  MIC: 0.25 µM (≈ 0.0971 µg/mL)
[50]
  MIC: > 500 µM
[51]
  MIC: > 500 µM
[52]
  MIC: > 500 µM
[53]
  MIC: > 500 µM

## O=c1nc(N2CCN(CC3CCCCC3)CC2)sc2c([N+](=O)[O-])cc(C(F)(F)F)cc12 [MACOZINONE]
[54]
  MIC: 0.0004 µM (≈ 0.000183 µg/mL)
